Test results from ChEMBL document CHEMBL5727136, “Inhibitors of RPN11” (2018).

experiment: (§1) Biochemical Assay: In brief, this Rpn11 bioassay employs a fluorescent polarization readout based on the ability of the 26S proteasome to cleave the protein substrate including four tandem ubiquitin proteins fused to a peptide having a unique cysteine labeled with a fluorophore. Cleavage of this substrate by Rpn11 at the junction between the fourth ubiquitin and the peptide, releases the low molecular weight fluorescent peptide. Accordingly, inhibition of fluorescence correlates with inhibition of Rpn11. Inhibition is reported as the half maximal inhibitory concentration (IC50) for the candidate compound.The catalytic JAB1/MPN/Mov34 metalloenzyme (JAMM) motif of Rpn11 is found in 7 different human proteins including the Csn5 subunit of the COP9 signalosome, AMSH, AMSH-LP, the BRCC36 subunit of BRISC, MPND, and MYSM1. All of these enzymes cleave the isopeptide linkage that joins ubiquitin (or the ubiquitin-like protein Nedd8 in the case of Csn5) to a second molecule of ubiquitin or to a substrate. The conserved JAMM domain has the consensus sequence EXnHS/THX7SXXD, in which the histidine (His) and aspartic acid (Asp) residues bind the Zn2+ ion and the fourth coordination site is occupied by a water molecule that is engaged in hydrogen bonding with a conserved glutamic acid (Glu). The Zn2+ acts as a Lewis acid and increases the nucleophilic character of the bound water enough to allow hydrolytic cleavage of the isopeptide bond.

For O=C(NCc1cccs1)c1cnc2c(S)cccc2c1, which IC50 is on record?
Its IC50 is 800 nM.

Which IC50 does the source give for O=C(NCc1ccc(N2CCOCC2)cc1)c1cnc2c(S)cccc2c1 here?
The IC50 was 800 nM.

Which IC50 does the source give for NC(=O)c1cnc2c(S)cccc2c1 here?
Its IC50 is 1000 nM.

With O=C(NCc1ccco1)c1cnc2c(S)cccc2c1 as the compound, how does the IC50 read?
Its IC50 is 900 nM.

With O=C(NCCN1CCOCC1)c1cnc2c(S)cccc2c1 as the compound, how does the IC50 read?
The IC50 was 6400 nM.

For O=C(NCCc1cccs1)c1cnc2c(S)cccc2c1, which IC50 is on record?
Its IC50 is 300 nM.

For O=C(NCC1CCCO1)c1cnc2c(S)cccc2c1 (stereo unspecified), which IC50 is on record?
Its IC50 is 4600 nM.

With O=C(NCc1ccc2c(c1)OCO2)c1cnc2c(S)cccc2c1 as the compound, how does the IC50 read?
The IC50 was 900 nM.

Which IC50 does the source give for O=C(NCc1ccccc1)c1cnc2c(S)cccc2c1 here?
Its IC50 is 1100 nM.

experiment: as §1

For O=C(NCc1cccs1)c1cnc2c(S)cccc2c1, which IC50 is on record?
The IC50 was 16 µM.

For CNC(=O)c1cnc2c(S)cccc2c1, which IC50 is on record?
Its IC50 is 68 µM.

Which IC50 does the source give for O=C(NCCc1ccco1)c1cnc2c(S)cccc2c1 here?
The IC50 was 6.9 µM.

For O=C(NCCc1cccs1)c1cnc2c(S)cccc2c1, which IC50 is on record?
Its IC50 is 4 µM.

With O=C(NCC1CCCO1)c1cnc2c(S)cccc2c1 (stereo unspecified) as the compound, how does the IC50 read?
Its IC50 is 41.3 µM.

For O=C(NCCc1nccs1)c1cnc2c(S)cccc2c1, which IC50 is on record?
The IC50 was 30 µM.

For O=C(NCc1ccc2c(c1)OCO2)c1cnc2c(S)cccc2c1, which IC50 is on record?
Its IC50 is 7 µM.

Which IC50 does the source give for O=C(NCc1ccc(F)cc1)c1cnc2c(S)cccc2c1 here?
The IC50 was 18 µM.

With COc1ccc(CNC(=O)c2cnc3c(S)cccc3c2)cc1 as the compound, how does the IC50 read?
Its IC50 is 0.5 µM.

For O=C(NCc1ccccc1)c1cnc2c(S)cccc2c1, which IC50 is on record?
Its IC50 is 11 µM.

experiment: as §1; remark: another data set of the same source

For O=C(NCCc1ccco1)c1ccnc2c(S)cccc12, which IC50 is on record?
The IC50 was 2900 nM.

Which IC50 does the source give for O=C(NCc1cccnc1)c1cnc2c(S)cccc2c1 here?
The IC50 was 3520 nM.

Which IC50 does the source give for O=C(NCc1cccs1)c1cnc2c(S)cccc2c1 here?
Its IC50 is 1300 nM.

With NC(=O)c1cnc2c(S)cccc2c1 as the compound, how does the IC50 read?
The IC50 was 1200 nM.

With CNC(=O)c1cnc2c(S)cccc2c1 as the compound, how does the IC50 read?
Its IC50 is 4800 nM.

Which IC50 does the source give for O=C(NCc1nccs1)c1cnc2c(S)cccc2c1 here?
The IC50 was 7800 nM.

With O=C(NCCc1ccco1)c1cnc2c(S)cccc2c1 as the compound, how does the IC50 read?
The IC50 was 1700 nM.

Which IC50 does the source give for O=C(NCc1ccccn1)c1cnc2c(S)cccc2c1 here?
The IC50 was 16700 nM.

For O=C(NCc1ccco1)c1cnc2c(S)cccc2c1, which IC50 is on record?
Its IC50 is 900 nM.

For O=C(NCCN1CCOCC1)c1cnc2c(S)cccc2c1, which IC50 is on record?
The IC50 was 25400 nM.

Which IC50 does the source give for O=C(NCCc1cccs1)c1cnc2c(S)cccc2c1 here?
The IC50 was 1300 nM.

For O=C(NCC1CCCO1)c1cnc2c(S)cccc2c1 (stereo unspecified), which IC50 is on record?
The IC50 was 6800 nM.

For O=C(Nc1nccs1)c1cnc2c(S)cccc2c1, which IC50 is on record?
Its IC50 is 3300 nM.

With O=C(NCc1ccc2c(c1)OCO2)c1cnc2c(S)cccc2c1 as the compound, how does the IC50 read?
Its IC50 is under 200 nM.

Which IC50 does the source give for O=C(NCc1ccc(F)cc1)c1cnc2c(S)cccc2c1 here?
Its IC50 is 850 nM.

For COc1ccc(CNC(=O)c2cnc3c(S)cccc3c2)cc1, which IC50 is on record?
The IC50 was 600 nM.

For O=C(NCc1ccccc1)c1cnc2c(S)cccc2c1, which IC50 is on record?
The IC50 was 15000 nM.
